The source made the active and inactive calls. The rule behind the calls is not given here.
What follows are molecules tested on RAW264.7 (assay: Cytotoxicity against mouse RAW264.7 cells assessed as cell viability at 50 uM after 18 hrs by MTT assay in presence of LPS). Details: raw264.7, 18 h.
Assay type: cell-based

Compound | Activity
COc1cc(/C=C/CO)cc(OC)c1O[C@@H]1O[C@H](CO)[C@@H](O)[C@H](O)[C@H]1O [SYRINGIN] | Non-toxic
O=C(O[C@H]1[C@H](Oc2c(-c3ccc(O)cc3)oc3cc(O)cc(O)c3c2=O)O[C@H](CO)[C@@H](O)[C@@H]1OC(=O)c1cc(O)c(O)c(O)c1)c1cc(O)c(O)c(O)c1 | Non-toxic
O=C(O[C@H]1[C@H](Oc2c(-c3ccc(O)c(O)c3)oc3cc(O)cc(O)c3c2=O)O[C@H](CO)[C@@H](O)[C@@H]1O)c1cc(O)c(O)c(O)c1 | Non-toxic
OC[C@H]1O[C@@H](OCc2ccccc2)[C@H](O)[C@@H]1O | Non-toxic
C[C@@H]1O[C@@H](OC[C@H]2O[C@@H](Oc3c(-c4ccc(O)cc4)oc4cc(O)cc(O)c4c3=O)[C@H](O)[C@@H](O)[C@@H]2O)[C@H](O)[C@H](O)[C@H]1O [NICOTIFLOROSIDE] | Non-toxic
O=c1oc2c(O)c(O)cc3c(=O)oc4c(O)c(O)cc1c4c23 [ELLAGIC ACID] | Non-toxic

What follows are molecules tested on RAW264.7 (assay: Antiinflammatory activity in mouse RAW264.7 cells assessed as inhibition of LPS-induced TNF-alpha secretion at 10 uM after 18 hrs by sandwich ELISA). Details: not given.
Assay type: functional

Compound | inhibition
COc1cc(/C=C/CO)cc(OC)c1O[C@@H]1O[C@H](CO)[C@@H](O)[C@H](O)[C@H]1O [SYRINGIN] | Active
O=C(O[C@H]1[C@H](Oc2c(-c3ccc(O)cc3)oc3cc(O)cc(O)c3c2=O)O[C@H](CO)[C@@H](O)[C@@H]1OC(=O)c1cc(O)c(O)c(O)c1)c1cc(O)c(O)c(O)c1 | Active
C[C@@H]1O[C@@H](OC[C@H]2O[C@@H](Oc3c(-c4ccc(O)cc4)oc4cc(O)cc(O)c4c3=O)[C@H](O)[C@@H](O)[C@@H]2O)[C@H](O)[C@H](O)[C@H]1O [NICOTIFLOROSIDE] | Active
O=c1oc2c(O)c(O)cc3c(=O)oc4c(O)c(O)cc1c4c23 [ELLAGIC ACID] | Active

Same assay, conditions: RAW264.7, 18 h

Compound | inhibition at 10 µM [%]
O=C(O[C@H]1[C@H](Oc2c(-c3ccc(O)c(O)c3)oc3cc(O)cc(O)c3c2=O)O[C@H](CO)[C@@H](O)[C@@H]1O)c1cc(O)c(O)c(O)c1 | 21.5
OC[C@H]1O[C@@H](OCc2ccccc2)[C@H](O)[C@@H]1O | 21.5

These molecules were tested on RAW264.7 (assay: Antiinflammatory activity in mouse RAW264.7 cells assessed as inhibition of LPS-induced nitric oxide production after 18 hrs by griess reaction analysis). Details: RAW264.7, 18 h.
Assay type: functional, cell-based

Compound | IC50 [µM]
COc1cc(/C=C/CO)cc(OC)c1O[C@@H]1O[C@H](CO)[C@@H](O)[C@H](O)[C@H]1O [SYRINGIN] | 24
OC[C@H]1O[C@@H](OCc2ccccc2)[C@H](O)[C@@H]1O | 24.5
C[C@@H]1O[C@@H](OC[C@H]2O[C@@H](Oc3c(-c4ccc(O)cc4)oc4cc(O)cc(O)c4c3=O)[C@H](O)[C@@H](O)[C@@H]2O)[C@H](O)[C@H](O)[C@H]1O [NICOTIFLOROSIDE] | 45.3
O=c1oc2c(O)c(O)cc3c(=O)oc4c(O)c(O)cc1c4c23 [ELLAGIC ACID] | 35.7

The molecules below were run on RAW264.7 (assay: Antiinflammatory activity in mouse RAW264.7 cells assessed as inhibition of LPS-induced nitric oxide production at 10 uM after 18 hrs by griess reaction analysis). Details: not given.
Assay type: functional

Compound | inhibition
COc1cc(/C=C/CO)cc(OC)c1O[C@@H]1O[C@H](CO)[C@@H](O)[C@H](O)[C@H]1O [SYRINGIN] | Active
O=C(O[C@H]1[C@H](Oc2c(-c3ccc(O)cc3)oc3cc(O)cc(O)c3c2=O)O[C@H](CO)[C@@H](O)[C@@H]1OC(=O)c1cc(O)c(O)c(O)c1)c1cc(O)c(O)c(O)c1 | inactive
O=C(O[C@H]1[C@H](Oc2c(-c3ccc(O)c(O)c3)oc3cc(O)cc(O)c3c2=O)O[C@H](CO)[C@@H](O)[C@@H]1O)c1cc(O)c(O)c(O)c1 | inactive
OC[C@H]1O[C@@H](OCc2ccccc2)[C@H](O)[C@@H]1O | Active
C[C@@H]1O[C@@H](OC[C@H]2O[C@@H](Oc3c(-c4ccc(O)cc4)oc4cc(O)cc(O)c4c3=O)[C@H](O)[C@@H](O)[C@@H]2O)[C@H](O)[C@H](O)[C@H]1O [NICOTIFLOROSIDE] | inactive
O=c1oc2c(O)c(O)cc3c(=O)oc4c(O)c(O)cc1c4c23 [ELLAGIC ACID] | inactive

The molecules below were run against T1, Bifunctional epoxide hydrolase 2 (Homo sapiens) (UniProt P34913) (assay: Inhibition of sEH (unknown origin) assessed as substrate PHOME hydrolysis at 25 uM after 1 hr by fluorescence method). Details: not given.
T1 sequence (whole entry): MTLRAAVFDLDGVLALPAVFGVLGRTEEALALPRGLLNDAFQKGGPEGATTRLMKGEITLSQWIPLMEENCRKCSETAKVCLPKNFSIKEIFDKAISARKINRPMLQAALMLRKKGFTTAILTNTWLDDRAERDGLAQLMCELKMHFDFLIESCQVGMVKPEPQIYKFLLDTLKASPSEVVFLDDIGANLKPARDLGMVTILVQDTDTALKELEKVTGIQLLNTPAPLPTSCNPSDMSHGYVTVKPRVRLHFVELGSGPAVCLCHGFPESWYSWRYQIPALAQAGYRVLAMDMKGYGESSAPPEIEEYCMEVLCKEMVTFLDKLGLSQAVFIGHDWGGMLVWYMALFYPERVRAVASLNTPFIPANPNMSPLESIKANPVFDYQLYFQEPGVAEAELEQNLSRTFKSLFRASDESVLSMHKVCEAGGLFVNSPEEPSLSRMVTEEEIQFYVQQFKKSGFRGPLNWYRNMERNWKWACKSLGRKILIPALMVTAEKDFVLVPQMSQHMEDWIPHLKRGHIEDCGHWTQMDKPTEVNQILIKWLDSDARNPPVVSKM

Compound | inhibition [%]
COc1cc(/C=C/CO)cc(OC)c1O[C@@H]1O[C@H](CO)[C@@H](O)[C@H](O)[C@H]1O [SYRINGIN] | < 40
O=C(O[C@H]1[C@H](Oc2c(-c3ccc(O)cc3)oc3cc(O)cc(O)c3c2=O)O[C@H](CO)[C@@H](O)[C@@H]1OC(=O)c1cc(O)c(O)c(O)c1)c1cc(O)c(O)c(O)c1 | > 40
O=C(O[C@H]1[C@H](Oc2c(-c3ccc(O)c(O)c3)oc3cc(O)cc(O)c3c2=O)O[C@H](CO)[C@@H](O)[C@@H]1O)c1cc(O)c(O)c(O)c1 | > 40
O=c1oc2c(O)c(O)cc3c(=O)oc4c(O)c(O)cc1c4c23 [ELLAGIC ACID] | > 40

These molecules were tested against T2, Bifunctional epoxide hydrolase 2 (Homo sapiens, UniProt P34913) (assay: Inhibition of sEH (unknown origin) assessed as substrate PHOME hydrolysis after 1 hr by fluorescence method). Details: not given.
T2 sequence (P34913 whole entry): T1 sequence (whole entry)

Compound | IC50 [µM]
O=C(O[C@H]1[C@H](Oc2c(-c3ccc(O)cc3)oc3cc(O)cc(O)c3c2=O)O[C@H](CO)[C@@H](O)[C@@H]1OC(=O)c1cc(O)c(O)c(O)c1)c1cc(O)c(O)c(O)c1 | 23.8
O=C(O[C@H]1[C@H](Oc2c(-c3ccc(O)c(O)c3)oc3cc(O)cc(O)c3c2=O)O[C@H](CO)[C@@H](O)[C@@H]1O)c1cc(O)c(O)c(O)c1 | 18
O=c1oc2c(O)c(O)cc3c(=O)oc4c(O)c(O)cc1c4c23 [ELLAGIC ACID] | 20.7

What follows are molecules tested on RAW264.7 (assay: Antiinflammatory activity in mouse RAW264.7 cells assessed as inhibition of LPS-induced TNF-alpha secretion after 18 hrs by sandwich ELISA). Details: RAW264.7, 18 h.
Assay type: functional, cell-based

Compound | IC50 [µM]
COc1cc(/C=C/CO)cc(OC)c1O[C@@H]1O[C@H](CO)[C@@H](O)[C@H](O)[C@H]1O [SYRINGIN] | 34.9
O=C(O[C@H]1[C@H](Oc2c(-c3ccc(O)c(O)c3)oc3cc(O)cc(O)c3c2=O)O[C@H](CO)[C@@H](O)[C@@H]1O)c1cc(O)c(O)c(O)c1 | 16.4
OC[C@H]1O[C@@H](OCc2ccccc2)[C@H](O)[C@@H]1O | 18.4
C[C@@H]1O[C@@H](OC[C@H]2O[C@@H](Oc3c(-c4ccc(O)cc4)oc4cc(O)cc(O)c4c3=O)[C@H](O)[C@@H](O)[C@@H]2O)[C@H](O)[C@H](O)[C@H]1O [NICOTIFLOROSIDE] | 41.5
O=c1oc2c(O)c(O)cc3c(=O)oc4c(O)c(O)cc1c4c23 [ELLAGIC ACID] | > 50

These molecules were tested on RAW264.7 (assay: Antiinflammatory activity in mouse RAW264.7 cells assessed as inhibition of LPS-induced TNF-alpha secretion at 0.4 uM after 18 hrs by sandwich ELISA). Details: not given.
Assay type: functional, cell-based

Compound | inhibition
COc1cc(/C=C/CO)cc(OC)c1O[C@@H]1O[C@H](CO)[C@@H](O)[C@H](O)[C@H]1O [SYRINGIN] | inactive
O=C(O[C@H]1[C@H](Oc2c(-c3ccc(O)cc3)oc3cc(O)cc(O)c3c2=O)O[C@H](CO)[C@@H](O)[C@@H]1OC(=O)c1cc(O)c(O)c(O)c1)c1cc(O)c(O)c(O)c1 | inactive
O=C(O[C@H]1[C@H](Oc2c(-c3ccc(O)c(O)c3)oc3cc(O)cc(O)c3c2=O)O[C@H](CO)[C@@H](O)[C@@H]1O)c1cc(O)c(O)c(O)c1 | inactive
OC[C@H]1O[C@@H](OCc2ccccc2)[C@H](O)[C@@H]1O | inactive
C[C@@H]1O[C@@H](OC[C@H]2O[C@@H](Oc3c(-c4ccc(O)cc4)oc4cc(O)cc(O)c4c3=O)[C@H](O)[C@@H](O)[C@@H]2O)[C@H](O)[C@H](O)[C@H]1O [NICOTIFLOROSIDE] | inactive
O=c1oc2c(O)c(O)cc3c(=O)oc4c(O)c(O)cc1c4c23 [ELLAGIC ACID] | inactive

The molecules below were run on RAW264.7 (assay: Antiinflammatory activity in mouse RAW264.7 cells assessed as inhibition of LPS-induced nitric oxide production at 0.4 uM after 18 hrs by griess reaction analysis). Details: not given.
Assay type: functional, cell-based

Compound | inhibition
COc1cc(/C=C/CO)cc(OC)c1O[C@@H]1O[C@H](CO)[C@@H](O)[C@H](O)[C@H]1O [SYRINGIN] | inactive
O=C(O[C@H]1[C@H](Oc2c(-c3ccc(O)cc3)oc3cc(O)cc(O)c3c2=O)O[C@H](CO)[C@@H](O)[C@@H]1OC(=O)c1cc(O)c(O)c(O)c1)c1cc(O)c(O)c(O)c1 | inactive
O=C(O[C@H]1[C@H](Oc2c(-c3ccc(O)c(O)c3)oc3cc(O)cc(O)c3c2=O)O[C@H](CO)[C@@H](O)[C@@H]1O)c1cc(O)c(O)c(O)c1 | inactive
OC[C@H]1O[C@@H](OCc2ccccc2)[C@H](O)[C@@H]1O | inactive
C[C@@H]1O[C@@H](OC[C@H]2O[C@@H](Oc3c(-c4ccc(O)cc4)oc4cc(O)cc(O)c4c3=O)[C@H](O)[C@@H](O)[C@@H]2O)[C@H](O)[C@H](O)[C@H]1O [NICOTIFLOROSIDE] | inactive
O=c1oc2c(O)c(O)cc3c(=O)oc4c(O)c(O)cc1c4c23 [ELLAGIC ACID] | inactive

Reference: ChEMBL document CHEMBL3232869, “Anti-inflammatory components of Euphorbia humifusa Willd” (Bioorg Med Chem Lett, 2014)
